Our source for the IC50 values is PMC8885877, “STAT3 inhibition suppresses adaptive survival of ALK-rearranged lung cancer cells through transcriptional modulation of apoptosis” (NPJ Precision Oncology, 2022).

This experiment has as its target STAT3 (Homo sapiens, UniProt P40763). Briefly: Alpha-based competitive binding assay with biotinylated recombinant STAT3 and FITC-labeled phospho-Tyr peptide. The text has this: Alpha-based competitive binding assay with biotinylated recombinant STAT3 and FITC-labeled phospho-Tyr peptide on STAT3 | inhibited the binding of phospho-Tyr peptide to the SH2 domain of STAT3 in a concentration-dependent manner with IC50 values

Chain of STAT3 (P40763 2-770): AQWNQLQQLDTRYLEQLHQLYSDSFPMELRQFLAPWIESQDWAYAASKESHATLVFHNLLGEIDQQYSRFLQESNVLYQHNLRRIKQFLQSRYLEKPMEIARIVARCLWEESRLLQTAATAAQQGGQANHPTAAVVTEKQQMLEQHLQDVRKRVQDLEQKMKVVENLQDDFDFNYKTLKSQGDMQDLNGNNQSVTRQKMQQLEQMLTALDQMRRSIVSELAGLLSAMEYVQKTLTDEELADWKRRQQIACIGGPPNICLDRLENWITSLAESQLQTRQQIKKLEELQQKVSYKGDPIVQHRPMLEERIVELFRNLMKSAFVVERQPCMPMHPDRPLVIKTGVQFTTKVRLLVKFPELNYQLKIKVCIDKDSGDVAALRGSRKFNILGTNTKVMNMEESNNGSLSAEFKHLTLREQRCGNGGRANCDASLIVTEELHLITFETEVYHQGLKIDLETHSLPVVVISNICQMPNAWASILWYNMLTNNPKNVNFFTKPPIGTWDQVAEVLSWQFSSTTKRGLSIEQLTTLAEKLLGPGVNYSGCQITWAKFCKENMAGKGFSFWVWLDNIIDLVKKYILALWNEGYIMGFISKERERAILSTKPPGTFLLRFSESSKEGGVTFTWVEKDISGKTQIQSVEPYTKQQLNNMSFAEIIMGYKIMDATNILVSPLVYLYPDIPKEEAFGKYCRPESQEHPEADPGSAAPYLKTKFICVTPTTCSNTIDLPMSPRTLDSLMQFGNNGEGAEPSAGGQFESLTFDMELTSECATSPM

YHO-1701: the IC50 (as a rule, the concentration needed to halve the response being measured) came to 2500 nM.
